For experiment [1], the target named is T1, Steroid 17-alpha-hydroxylase/17,20 lyase (Homo sapiens, UniProt P05093).
T1 sequence (P05093 whole entry): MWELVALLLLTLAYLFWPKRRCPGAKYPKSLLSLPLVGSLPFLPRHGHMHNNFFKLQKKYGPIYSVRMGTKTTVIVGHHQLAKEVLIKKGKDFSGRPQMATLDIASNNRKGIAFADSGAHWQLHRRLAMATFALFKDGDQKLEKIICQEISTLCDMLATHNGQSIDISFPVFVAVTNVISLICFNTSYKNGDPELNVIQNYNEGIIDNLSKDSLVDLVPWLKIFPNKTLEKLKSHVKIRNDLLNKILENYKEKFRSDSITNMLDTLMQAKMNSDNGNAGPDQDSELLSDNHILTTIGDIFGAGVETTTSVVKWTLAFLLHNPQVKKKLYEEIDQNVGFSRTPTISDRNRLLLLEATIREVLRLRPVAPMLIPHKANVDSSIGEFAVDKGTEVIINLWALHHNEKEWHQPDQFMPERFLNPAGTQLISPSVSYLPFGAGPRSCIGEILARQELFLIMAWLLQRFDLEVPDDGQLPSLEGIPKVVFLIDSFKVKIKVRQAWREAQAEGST
As to the kind of experiment: Inhibition of human CYP17 expressed in African green monkey COS7 cells using 17-hydroxypregnenolone as substrate preincubated for 1 hr followed by substrate addition measured after 3 hrs by EIA. The experiment is classed as cell-based.

In a further experiment the target is T2, Aromatase (Homo sapiens, UniProt P11511).
T2 sequence (P11511 whole entry): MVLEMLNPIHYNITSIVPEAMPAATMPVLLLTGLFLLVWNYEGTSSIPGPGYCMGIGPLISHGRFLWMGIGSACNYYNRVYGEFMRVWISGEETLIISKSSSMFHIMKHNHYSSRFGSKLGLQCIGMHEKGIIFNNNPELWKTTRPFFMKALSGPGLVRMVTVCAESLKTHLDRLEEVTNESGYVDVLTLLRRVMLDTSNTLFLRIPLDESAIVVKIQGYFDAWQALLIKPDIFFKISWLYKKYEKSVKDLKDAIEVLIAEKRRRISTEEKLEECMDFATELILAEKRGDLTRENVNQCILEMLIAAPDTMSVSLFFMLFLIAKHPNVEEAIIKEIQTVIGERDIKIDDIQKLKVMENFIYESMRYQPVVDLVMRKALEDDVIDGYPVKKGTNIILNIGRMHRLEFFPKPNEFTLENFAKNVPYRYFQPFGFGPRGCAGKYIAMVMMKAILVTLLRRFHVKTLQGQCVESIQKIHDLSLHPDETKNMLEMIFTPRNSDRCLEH
As to the kind of experiment: Inhibition of CYP19 (unknown origin) using MFC as substrate and NADPH as cofactor preincubated for 10 mins with cofactor followed by substrate/enzyme addition measured after 30 mins.

The target in experiment [2] is T3, Cytochrome P450 11B2, mitochondrial (Rattus norvegicus, UniProt P30099).
T3 sequence (P30099 whole entry): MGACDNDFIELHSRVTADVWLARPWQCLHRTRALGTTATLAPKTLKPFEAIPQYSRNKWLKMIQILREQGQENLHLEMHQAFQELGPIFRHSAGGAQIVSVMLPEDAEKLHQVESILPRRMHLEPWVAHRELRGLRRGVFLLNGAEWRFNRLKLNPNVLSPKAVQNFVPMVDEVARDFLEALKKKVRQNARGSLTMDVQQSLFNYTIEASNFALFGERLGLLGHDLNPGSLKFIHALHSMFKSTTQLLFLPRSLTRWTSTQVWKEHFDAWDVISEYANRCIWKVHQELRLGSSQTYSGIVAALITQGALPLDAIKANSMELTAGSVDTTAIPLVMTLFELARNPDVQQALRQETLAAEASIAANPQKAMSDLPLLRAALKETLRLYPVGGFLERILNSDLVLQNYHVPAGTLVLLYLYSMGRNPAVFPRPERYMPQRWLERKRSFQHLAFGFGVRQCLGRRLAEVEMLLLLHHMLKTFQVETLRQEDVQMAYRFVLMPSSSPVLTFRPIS
As to the kind of experiment: Inhibition of rat CYP11B2-1F4 expressed in Chinese hamster V79 cells using 11-deoxycorticosterone as substrate preincubated for 1 hr followed by substrate addition measured for 3 hrs by HTRF assay. Format: cell-based. A general note: In TR-FRET formats the signal depends on donor and acceptor labels being close together.

Another experiment concerns the target Cytochrome P450 2D6 (Homo sapiens, UniProt P10635). As to the kind of experiment: Inhibition of hepatic CYP2D6 (unknown origin). The experiment is classed as ADME.
Experiment [3] is described as follows: Selectivity ratio of IC50 for human CYP11B1-8C7 expressed in Chinese hamster V79 cells to IC50 for human CYP11B2-CLE9 expressed in Chinese hamster V79 cells.
A further experiment concerns the target Cytochrome P450 2C9 (Homo sapiens, UniProt P11712). As to the kind of experiment: Inhibition of hepatic CYP2C9 (unknown origin). The experiment is classed as ADME.
Experiment [4] concerns the target T4, Cytochrome P450 11B1, mitochondrial (Homo sapiens, UniProt P15538).
T4 sequence (P15538 whole entry): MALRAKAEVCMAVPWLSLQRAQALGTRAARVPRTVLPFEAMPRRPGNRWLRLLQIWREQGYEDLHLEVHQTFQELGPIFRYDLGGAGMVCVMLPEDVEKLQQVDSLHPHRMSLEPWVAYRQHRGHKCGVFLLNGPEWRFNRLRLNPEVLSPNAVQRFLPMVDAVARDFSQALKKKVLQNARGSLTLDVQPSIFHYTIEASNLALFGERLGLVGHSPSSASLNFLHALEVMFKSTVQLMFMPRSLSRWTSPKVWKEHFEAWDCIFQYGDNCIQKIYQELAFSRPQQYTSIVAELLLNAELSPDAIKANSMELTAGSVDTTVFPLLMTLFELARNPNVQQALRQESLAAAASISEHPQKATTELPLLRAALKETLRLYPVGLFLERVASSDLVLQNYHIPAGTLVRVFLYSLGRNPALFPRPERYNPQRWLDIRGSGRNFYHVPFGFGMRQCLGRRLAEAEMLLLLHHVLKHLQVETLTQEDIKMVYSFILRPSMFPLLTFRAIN
As to the kind of experiment: Inhibition of human CYP11B1-8C7 expressed in Chinese hamster V79 cells using 11-deoxycortisol as substrate preincubated for 1 hr followed by substrate addition measured for 3 hrs by HTRF assay. The experiment is classed as ADME, cell-based.

The target of the next experiment is T5, Steroid 21-hydroxylase (Homo sapiens, UniProt P08686).
T5 sequence (P08686 whole entry): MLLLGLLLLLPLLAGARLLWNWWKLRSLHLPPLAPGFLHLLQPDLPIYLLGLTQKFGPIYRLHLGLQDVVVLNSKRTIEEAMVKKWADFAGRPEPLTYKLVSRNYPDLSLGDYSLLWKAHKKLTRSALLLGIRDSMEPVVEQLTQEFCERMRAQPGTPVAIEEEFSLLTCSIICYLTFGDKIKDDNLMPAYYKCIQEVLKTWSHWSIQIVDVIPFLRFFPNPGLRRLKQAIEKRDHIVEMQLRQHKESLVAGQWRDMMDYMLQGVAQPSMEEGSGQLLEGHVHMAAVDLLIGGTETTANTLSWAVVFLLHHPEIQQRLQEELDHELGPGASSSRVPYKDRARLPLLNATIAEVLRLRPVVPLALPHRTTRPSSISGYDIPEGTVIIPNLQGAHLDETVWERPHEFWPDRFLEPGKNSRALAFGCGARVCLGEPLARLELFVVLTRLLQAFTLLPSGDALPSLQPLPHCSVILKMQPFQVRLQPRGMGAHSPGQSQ
As to the kind of experiment: Inhibition of human CYP21 expressed in African green monkey COS7 cells using […] as substrate preincubated for 1 hr followed by substrate addition measured for 3 hrs by HTRF assay. The experiment is classed as cell-based.

Experiment [5] concerns the target T6, Cytochrome P450 11B2, mitochondrial (Homo sapiens, UniProt P19099).
T6 sequence (P19099 whole entry): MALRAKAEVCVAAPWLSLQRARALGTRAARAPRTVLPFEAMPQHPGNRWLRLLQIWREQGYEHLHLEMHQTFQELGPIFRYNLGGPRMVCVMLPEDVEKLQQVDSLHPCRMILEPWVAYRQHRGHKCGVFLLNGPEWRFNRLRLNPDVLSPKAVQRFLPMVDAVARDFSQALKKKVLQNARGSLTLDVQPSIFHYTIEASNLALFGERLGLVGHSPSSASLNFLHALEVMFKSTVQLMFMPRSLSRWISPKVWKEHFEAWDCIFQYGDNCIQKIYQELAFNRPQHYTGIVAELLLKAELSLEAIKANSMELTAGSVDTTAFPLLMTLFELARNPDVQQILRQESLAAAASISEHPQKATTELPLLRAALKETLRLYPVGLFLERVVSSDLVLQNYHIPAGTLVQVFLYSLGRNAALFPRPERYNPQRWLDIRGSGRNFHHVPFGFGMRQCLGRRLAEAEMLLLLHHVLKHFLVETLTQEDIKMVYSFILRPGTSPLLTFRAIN
As to the kind of experiment: Inhibition of human CYP11B2-CLE9 expressed in Chinese hamster V79 cells using 11-deoxycorticosterone as substrate preincubated for 1 hr followed by substrate addition measured for 3 hrs by HTRF assay. Format: cell-based.

The next experiment addresses Cytochrome P450 3A4 (Homo sapiens, UniProt P08684). As to the kind of experiment: Inhibition of hepatic CYP3A4 (unknown origin). The experiment is classed as ADME.

Cytochrome P450 2C9, sequence (P11712 whole entry): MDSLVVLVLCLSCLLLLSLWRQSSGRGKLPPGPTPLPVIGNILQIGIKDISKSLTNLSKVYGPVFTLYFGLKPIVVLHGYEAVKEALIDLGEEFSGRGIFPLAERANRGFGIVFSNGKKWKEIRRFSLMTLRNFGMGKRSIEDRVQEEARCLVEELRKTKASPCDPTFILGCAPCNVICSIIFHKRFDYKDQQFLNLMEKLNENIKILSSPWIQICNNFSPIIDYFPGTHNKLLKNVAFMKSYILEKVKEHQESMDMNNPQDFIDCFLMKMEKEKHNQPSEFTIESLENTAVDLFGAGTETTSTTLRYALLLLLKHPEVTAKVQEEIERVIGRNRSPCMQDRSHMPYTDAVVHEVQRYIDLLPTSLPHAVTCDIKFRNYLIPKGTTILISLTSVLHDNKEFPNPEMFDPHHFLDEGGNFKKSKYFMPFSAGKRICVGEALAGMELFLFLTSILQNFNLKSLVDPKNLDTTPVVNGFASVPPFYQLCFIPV
Cytochrome P450 3A4, sequence (P08684 whole entry): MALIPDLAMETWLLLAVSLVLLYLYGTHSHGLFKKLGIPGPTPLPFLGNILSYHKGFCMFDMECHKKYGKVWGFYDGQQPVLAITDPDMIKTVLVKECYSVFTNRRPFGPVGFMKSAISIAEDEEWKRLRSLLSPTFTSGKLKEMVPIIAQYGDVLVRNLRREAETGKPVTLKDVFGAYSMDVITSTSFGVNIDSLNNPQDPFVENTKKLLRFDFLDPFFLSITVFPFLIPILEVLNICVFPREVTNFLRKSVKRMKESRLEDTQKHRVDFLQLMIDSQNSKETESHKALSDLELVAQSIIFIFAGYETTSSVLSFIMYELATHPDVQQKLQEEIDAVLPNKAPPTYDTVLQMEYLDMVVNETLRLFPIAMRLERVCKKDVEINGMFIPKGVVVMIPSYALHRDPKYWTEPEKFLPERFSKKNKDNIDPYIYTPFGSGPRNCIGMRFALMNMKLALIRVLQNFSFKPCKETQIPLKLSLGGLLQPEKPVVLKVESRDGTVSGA
Cytochrome P450 2D6, sequence (P10635 whole entry): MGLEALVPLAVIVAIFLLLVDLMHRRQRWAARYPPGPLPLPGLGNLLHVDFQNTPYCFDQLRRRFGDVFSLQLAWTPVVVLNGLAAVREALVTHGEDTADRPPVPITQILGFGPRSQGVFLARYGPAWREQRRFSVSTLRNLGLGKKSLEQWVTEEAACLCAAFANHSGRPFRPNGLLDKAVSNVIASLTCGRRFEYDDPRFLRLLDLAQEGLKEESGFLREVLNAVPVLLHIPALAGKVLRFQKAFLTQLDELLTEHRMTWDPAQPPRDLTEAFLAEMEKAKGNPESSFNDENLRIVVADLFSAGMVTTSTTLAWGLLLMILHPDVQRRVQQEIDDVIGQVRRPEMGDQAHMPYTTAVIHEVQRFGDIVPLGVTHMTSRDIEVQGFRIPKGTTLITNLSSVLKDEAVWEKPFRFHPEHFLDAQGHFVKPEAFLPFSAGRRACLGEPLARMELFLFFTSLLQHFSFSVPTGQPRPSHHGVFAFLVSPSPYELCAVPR

Broadly, the IC50 is the concentration needed to halve the response being measured. On to `C[C@](O)(c1cncc(-n2nc(C(F)(F)F)c3ccccc32)c1)C(F)(F)F`, for which the IC50 in experiment [1] was above 10 µM; against Aromatase it was 5.4 µM; in experiment [2] it was 0.077 µM; against Cytochrome P450 2D6 it was above 50 µM; on Cytochrome P450 2C9, 7.2 µM; in [4], 0.856 to 0.86 µM. In addition, the IC50 on Steroid 21-hydroxylase is above 10 µM; in experiment [5], 0.077 to 0.0774 µM; against Cytochrome P450 3A4, above 50 µM. Further, the “Ratio IC50” value in [3] is given as 11.

Consider `Cc1nn(-c2cncc([C@@](C)(O)C(F)(F)F)c2)c2ccccc12`, for which the IC50 in [1] is above 10 µM; at Aromatase, 6.2 µM; in experiment [2] it was 0.033 µM; on Cytochrome P450 2D6 it was above 50 µM; on Cytochrome P450 2C9, 3.8 µM; in [4] it was 0.386 to 0.39 µM. Besides, the IC50 was above 10 µM at Steroid 21-hydroxylase, 0.0329 to 0.033 µM in experiment [5] and above 50 µM against Cytochrome P450 3A4. For the same molecule, in [3], the “Ratio IC50” value amounted to 12.

`Cc1nn(-c2cncc(C(C)(C)O)c2)c2cccc(F)c12`: the IC50 was above 10 µM in experiment [1]; 6.9 µM against Aromatase; 0.0013 µM in experiment [2]; above 50 µM on Cytochrome P450 2D6; 4.7 µM on Cytochrome P450 2C9; 0.022 to 0.0223 µM in [4]. Besides, the IC50 on Steroid 21-hydroxylase was above 10 µM; in [5], 0.0013 to 0.00131 µM; against Cytochrome P450 3A4, above 50 µM. Also, the “Ratio IC50” value in experiment [3] came out at 17.

Take `Cc1nn(-c2cncc([C@](C)(O)C(F)(F)F)c2)c2ccccc12`: the half-inhibitory concentration (IC50) was above 10 µM in [1]; 6.3 µM against Aromatase; 0.014 µM in experiment [2]; above 50 µM on Cytochrome P450 2D6; 11 µM at Cytochrome P450 2C9; 0.338 to 0.34 µM in experiment [4]. Also, the IC50 is above 10 µM against Steroid 21-hydroxylase, 0.014 to 0.0143 µM in [5] and above 50 µM against Cytochrome P450 3A4. Further, the “Ratio IC50” value in [3] is on record as 24.
